Data reported in ChEMBL document CHEMBL1201862, “PubChem BioAssay data set” (2004).
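Cultured in 96-well plates, cells were exposed to test compound for 48 hours across five concentrations. GI50: concentration for 50% inhibition of growth.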 Calls of active or inactive are those of the source. No stated cut-off is given here; in the data, active = GI50 up to about 1.1 µM and inactive = higher.

Columns and labels:
Test in all cases: inhibition of tumour cell growth, NCI panel, 48 h
[1] = tested on: SF-268
[2] = tested on: ACHN
[3] = tested on: MOLT-4
[4] = tested on: SW-620
[5] = tested on: SF-295
[6] = tested on: DU-145
[7] = tested on: SK-OV-3
[8] = tested on: RXF 393
[9] = tested on: OVCAR-4
[10] = tested on: SK-MEL-5
[11] = tested on: NCI-H23
[12] = tested on: Hs-578T
[13] = tested on: MDA-MB-231
[14] = tested on: HT-29
[15] = tested on: UACC-257
[16] = tested on: MCF7
[17] = tested on: T47D
[18] = tested on: LOX IMVI
[19] = tested on: NCI-H226
[20] = tested on: HOP-62
[21] = tested on: TK-10
[22] = tested on: HCT-15
[23] = tested on: SR
[24] = tested on: CCRF-CEM
[25] = tested on: UO-31
[26] = tested on: NCI-H522
[27] = tested on: K562
[28] = tested on: HL-60
[29] = tested on: EKVX
[30] = tested on: U-251
[31] = tested on: RPMI-8226
[32] = tested on: BT-549
[33] = tested on: OVCAR-5
[34] = tested on: SNB-19
[35] = tested on: OVCAR-8
[36] = tested on: PC-3
[37] = tested on: HOP-92
[38] = tested on: M14
[39] = tested on: KM12
[40] = tested on: A549
[41] = tested on: A498
[42] = tested on: SN12C
[43] = tested on: NCI-H460
[44] = tested on: COLO 205
[45] = tested on: HCT-116
[46] = tested on: CAKI-1
[47] = tested on: HCC 2998
[48] = tested on: 786-0
[49] = tested on: SF-539
[50] = tested on: SK-MEL-28
[51] = tested on: Malme-3M
[52] = tested on: MDA-MB-435
[53] = tested on: MDA-N
[54] = tested on: IGROV-1
[55] = tested on: OVCAR-3
[56] = tested on: SK-MEL-2
[57] = tested on: SNB-75
[58] = tested on: UACC-62
[59] = tested on: NCI/ADR-RES

Measured: GI50

C=CCNC(=O)N1CC(C)C(=O)Nc2ccccc21 (configuration not stated)
inactive: [1] > 100 µM | [2] > 100 µM | [3] > 100 µM | [4] > 100 µM | [5] > 100 µM | [6] > 100 µM | [7] > 100 µM | [8] > 100 µM | [9] > 100 µM | [10] > 100 µM | [11] > 100 µM | [12] > 100 µM | [13] > 100 µM | [14] > 100 µM | [15] > 100 µM | [16] > 100 µM | [17] > 100 µM | [18] > 100 µM | [19] > 100 µM | [20] > 100 µM | [21] > 100 µM | [23] > 100 µM | [24] > 100 µM | [25] > 100 µM | [26] > 100 µM | [27] > 100 µM | [28] > 100 µM | [29] > 100 µM | [30] > 100 µM | [31] > 100 µM | [32] > 100 µM | [33] > 100 µM | [34] > 100 µM | [35] > 100 µM | [36] > 100 µM | [37] > 100 µM | [38] > 100 µM | [39] > 100 µM | [40] > 100 µM | [41] > 100 µM | [42] > 100 µM | [43] > 100 µM | [44] > 100 µM | [45] > 100 µM | [46] > 100 µM | [47] > 100 µM | [48] > 100 µM | [49] > 100 µM | [50] > 100 µM | [51] > 100 µM | [52] > 100 µM | [53] > 100 µM | [54] > 100 µM | [55] > 100 µM | [56] > 100 µM
> 100 µM: [22]

Cc1ccc(S(=O)(=O)N/N=C/c2c(O)ccc3ccccc23)cc1
inactive: [1] 31.8 µM | [2] 23.9 µM | [3] 20.5 µM | [4] 30.3 µM | [5] 16.2 µM | [6] 29 µM | [7] 7.87 µM | [8] 19.4 µM | [9] 28.8 µM | [10] 31.8 µM | [11] 30.5 µM | [12] 17.5 µM | [13] 21.9 µM | [14] 32.9 µM | [15] 37.3 µM | [16] 25.5 µM | [17] 31.8 µM | [18] 32.1 µM | [20] 37.7 µM | [21] 45.8 µM | [24] 36.7 µM | [25] 53.7 µM | [26] 17 µM | [27] 18.3 µM | [28] 43.4 µM | [29] 32.1 µM | [30] 27.6 µM | [31] 26.7 µM | [32] 23.8 µM | [33] 29.6 µM | [34] 41.1 µM | [35] 30.4 µM | [36] 20.7 µM | [38] 22.1 µM | [39] 18.9 µM | [40] 34 µM | [41] 16.7 µM | [42] 31.1 µM | [43] 26.3 µM | [57] 20.7 µM | [44] 19.5 µM | [45] 15.3 µM | [46] 17.9 µM | [47] 21.4 µM | [48] 30.1 µM | [49] 16.1 µM | [50] 35.5 µM | [51] 24.3 µM | [52] 23.7 µM | [53] 27.6 µM | [58] 18.2 µM | [59] 27.7 µM | [54] 6.68 µM | [55] 19.9 µM | [56] 20.8 µM
24.5 µM: [22]

c1ccc2c(CN3CCC(C4CCN(Cc5cccc6ccccc56)CC4)CC3)cccc2c1
inactive: [2] 33.3 µM | [3] 5.27 µM | [5] 6.28 µM | [6] 86.1 µM | [7] 28 µM | [8] 21.8 µM | [10] 4.89 µM | [12] 32.1 µM | [13] 21.4 µM | [14] 3.28 µM | [15] 3.48 µM | [16] 26.5 µM | [17] 23.1 µM | [20] 25.4 µM | [21] 20.1 µM | [26] 8.53 µM | [27] 1.6 µM | [28] 3.01 µM | [30] 16.5 µM | [31] 2.57 µM | [32] > 56 µM | [36] 32.8 µM | [38] 1.98 µM | [40] 62.7 µM | [43] 16.3 µM | [44] 1.77 µM | [47] 1.77 µM | [48] 16.3 µM | [51] 3.47 µM | [52] 3.52 µM | [53] 8.13 µM | [58] 7.43 µM | [59] 38.3 µM | [55] > 58.6 µM | [56] 8.41 µM
